# Measured values published in ChEMBL document CHEMBL4665869, “New thiazolopyrimidine as anticancer agents: Synthesis, biological evaluation, DNA binding, molecular modeling and ADMET study” (Bioorg Med Chem Lett, 2020).
# Experiments:
# LOX IMVI = experiment: Growth inhibition of human LOX IMVI cells at 10 uM relative to control; assay type: functional; conditions: read-out: GI
# MDA-MB-468 = experiment: Growth inhibition of human MDA-MB-468 cells at 10 uM relative to control; assay type: functional; conditions: read-out: GI
# T47D = experiment: Growth inhibition of human T47D cells at 10 uM relative to control; assay type: functional; conditions: read-out: GI
# CCRF-CEM = experiment: Growth inhibition of human CCRF-CEM cells at 10 uM relative to control; assay type: functional; conditions: read-out: GI
# HL-60(TB) = experiment: Growth inhibition of human HL-60(TB) cells at 10 uM relative to control; assay type: functional; conditions: read-out: GI
# K562 = experiment: Growth inhibition of human K562 cells at 10 uM relative to control; assay type: functional; conditions: read-out: GI
# MOLT-4 = experiment: Growth inhibition of human MOLT-4 cells at 10 uM relative to control; assay type: functional; conditions: read-out: GI
# RPMI-8226 = experiment: Growth inhibition of human RPMI-8226 cells at 10 uM relative to control; assay type: functional; conditions: read-out: GI
# SR = experiment: Growth inhibition of human SR cells at 10 uM relative to control; assay type: functional; conditions: read-out: GI
# A549 = experiment: Growth inhibition of human A549 cells at 10 uM relative to control; assay type: functional; conditions: read-out: GI
# HOP-62 = experiment: Growth inhibition of human HOP-62 cells at 10 uM relative to control; assay type: functional; conditions: read-out: GI
# HOP-92 = experiment: Growth inhibition of human HOP-92 cells at 10 uM relative to control; assay type: functional; conditions: read-out: GI
# NCI-H226 = experiment: Growth inhibition of human NCI-H226 cells at 10 uM relative to control; assay type: functional; conditions: read-out: GI
# NCI-H23 = experiment: Growth inhibition of human NCI-H23 cells at 10 uM relative to control; assay type: functional; conditions: read-out: GI
# NCI-H322M = experiment: Growth inhibition of human NCI-H322M cells at 10 uM relative to control; assay type: functional; conditions: read-out: GI
# NCI-H460 = experiment: Growth inhibition of human NCI-H460 cells at 10 uM relative to control; assay type: functional; conditions: read-out: GI
# NCI-H522 = experiment: Growth inhibition of human NCI-H522 cells at 10 uM relative to control; assay type: functional; conditions: read-out: GI
# SW-620 = experiment: Growth inhibition of human SW-620 cells at 10 uM relative to control; assay type: functional; conditions: read-out: GI
# COLO 205 = experiment: Growth inhibition of human COLO 205 cells at 10 uM relative to control; assay type: functional; conditions: read-out: GI
# HCC 2998 = experiment: Growth inhibition of human HCC 2998 cells at 10 uM relative to control; assay type: functional; conditions: read-out: GI
# HCT-116 = experiment: Growth inhibition of human HCT-116 cells at 10 uM relative to control; assay type: functional; conditions: read-out: GI
# HCT-15 = experiment: Growth inhibition of human HCT-15 cells at 10 uM relative to control; assay type: functional; conditions: read-out: GI
# HT-29 = experiment: Growth inhibition of human HT-29 cells at 10 uM relative to control; assay type: functional; conditions: read-out: GI
# KM12 = experiment: Growth inhibition of human KM12 cells at 10 uM relative to control; assay type: functional; conditions: read-out: GI
# SF-268 = experiment: Growth inhibition of human SF-268 cells at 10 uM relative to control; assay type: functional; conditions: read-out: GI
# SF-295 = experiment: Growth inhibition of human SF-295 cells at 10 uM relative to control; assay type: functional; conditions: read-out: GI
# SF-539 = experiment: Growth inhibition of human SF-539 cells at 10 uM relative to control; assay type: functional; conditions: read-out: GI
# SNB-19 = experiment: Growth inhibition of human SNB-19 cells at 10 uM relative to control; assay type: functional; conditions: read-out: GI
# SNB-75 = experiment: Growth inhibition of human SNB-75 cells at 10 uM relative to control; assay type: functional; conditions: read-out: GI
# U-251 = experiment: Growth inhibition of human U-251 cells at 10 uM relative to control; assay type: functional; conditions: read-out: GI
# Malme-3M = experiment: Growth inhibition of human Malme-3M cells at 10 uM relative to control; assay type: functional; conditions: read-out: GI
# M14 = experiment: Growth inhibition of human M14 cells at 10 uM relative to control; assay type: functional; conditions: read-out: GI
# MDA-MB-435 = experiment: Growth inhibition of human MDA-MB-435 cells at 10 uM relative to control; assay type: functional; conditions: read-out: GI
# SK-MEL-2 = experiment: Growth inhibition of human SK-MEL-2 cells at 10 uM relative to control; assay type: functional; conditions: read-out: GI
# SK-MEL-28 = experiment: Growth inhibition of human SK-MEL-28 cells at 10 uM relative to control; assay type: functional; conditions: read-out: GI
# SK-MEL-5 = experiment: Growth inhibition of human SK-MEL-5 cells at 10 uM relative to control; assay type: functional; conditions: read-out: GI
# UACC-257 = experiment: Growth inhibition of human UACC-257 cells at 10 uM relative to control; assay type: functional; conditions: read-out: GI
# UACC-62 = experiment: Growth inhibition of human UACC-62 cells at 10 uM relative to control; assay type: functional; conditions: read-out: GI
# IGROV-1 = experiment: Growth inhibition of human IGROV-1 cells at 10 uM relative to control; assay type: functional; conditions: read-out: GI
# OVCAR-4 = experiment: Growth inhibition of human OVCAR-4 cells at 10 uM relative to control; assay type: functional; conditions: read-out: GI
# OVCAR-5 = experiment: Growth inhibition of human OVCAR-5 cells at 10 uM relative to control; assay type: functional; conditions: read-out: GI
# OVCAR-8 = experiment: Growth inhibition of human OVCAR-8 cells at 10 uM relative to control; assay type: functional; conditions: read-out: GI
# NCI/ADR-RES = experiment: Growth inhibition of human NCI/ADR-RES cells at 10 uM relative to control; assay type: functional; conditions: read-out: GI
# SK-OV-3 = experiment: Growth inhibition of human SK-OV-3 cells at 10 uM relative to control; assay type: functional; conditions: read-out: GI
# 786-0 = experiment: Growth inhibition of human 786-0 cells at 10 uM relative to control; assay type: functional; conditions: read-out: GI
# A498 = experiment: Growth inhibition of human A498 cells at 10 uM relative to control; assay type: functional; conditions: read-out: GI
# ACHN = experiment: Growth inhibition of human ACHN cells at 10 uM relative to control; assay type: functional; conditions: read-out: GI
# CAKI-1 = experiment: Growth inhibition of human CAKI-1 cells at 10 uM relative to control; assay type: functional; conditions: read-out: GI
# RXF 393 = experiment: Growth inhibition of human RXF 393 cells at 10 uM relative to control; assay type: functional; conditions: read-out: GI
# SN12C = experiment: Growth inhibition of human SN12C cells at 10 uM relative to control; assay type: functional; conditions: read-out: GI
# TK-10 = experiment: Growth inhibition of human TK-10 cells at 10 uM relative to control; assay type: functional; conditions: read-out: GI
# UO-31 = experiment: Growth inhibition of human UO-31 cells at 10 uM relative to control; assay type: functional; conditions: read-out: GI
# PC-3 = experiment: Growth inhibition of human PC-3 cells at 10 uM relative to control; assay type: functional; conditions: read-out: GI
# DU-145 = experiment: Growth inhibition of human DU-145 cells at 10 uM relative to control; assay type: functional; conditions: read-out: GI
# MCF7 = experiment: Growth inhibition of human MCF7 cells at 10 uM relative to control; assay type: functional; conditions: read-out: GI
# MDA-MB-231 = experiment: Growth inhibition of human MDA-MB-231 cells at 10 uM relative to control; assay type: functional; conditions: read-out: GI
# Hs-578T = experiment: Growth inhibition of human Hs-578T cells at 10 uM relative to control; assay type: functional; conditions: read-out: GI
# BT-549 = experiment: Growth inhibition of human BT-549 cells at 10 uM relative to control; assay type: functional; conditions: read-out: GI
# DNA = experiment: Displacement of methyl green from DNA (unknown origin) assessed as DNA intercalation after 24 hrs by colorimetric assay; assay type: nucleic-acid assay
smiles,measurement,setting,value
CCOC(=O)C1=CSC2=NC(/C=C/c3cc(OC)c(OC)c(OC)c3)=CC(c3cc(OC)c(OC)c(OC)c3)N12 (centres undefined),inhibition of growth at 10 µM,LOX IMVI,29.7%
same,inhibition of growth at 10 µM,MDA-MB-468,< 10%
same,inhibition of growth at 10 µM,T47D,< 10%
same,inhibition of growth at 10 µM,CCRF-CEM,69.3%
same,inhibition of growth at 10 µM,HL-60(TB),< 10%
same,inhibition of growth at 10 µM,K562,35.7%
same,inhibition of growth at 10 µM,MOLT-4,25.1%
same,inhibition of growth at 10 µM,RPMI-8226,18%
same,inhibition of growth at 10 µM,SR,59%
same,inhibition of growth at 10 µM,A549,< 10%
same,inhibition of growth at 10 µM,HOP-62,< 10%
same,inhibition of growth at 10 µM,HOP-92,< 10%
same,inhibition of growth at 10 µM,NCI-H226,< 10%
same,inhibition of growth at 10 µM,NCI-H23,< 10%
same,inhibition of growth at 10 µM,NCI-H322M,< 10%
same,inhibition of growth at 10 µM,NCI-H460,< 10%
same,inhibition of growth at 10 µM,NCI-H522,47.8%
same,inhibition of growth at 10 µM,SW-620,13.4%
same,inhibition of growth at 10 µM,COLO 205,< 10%
same,inhibition of growth at 10 µM,HCC 2998,< 10%
same,inhibition of growth at 10 µM,HCT-116,44.4%
same,inhibition of growth at 10 µM,HCT-15,35%
same,inhibition of growth at 10 µM,HT-29,13%
same,inhibition of growth at 10 µM,KM12,22.7%
same,inhibition of growth at 10 µM,SF-268,< 10%
same,inhibition of growth at 10 µM,SF-295,< 10%
same,inhibition of growth at 10 µM,SF-539,< 10%
same,inhibition of growth at 10 µM,SNB-19,< 10%
same,inhibition of growth at 10 µM,SNB-75,18.4%
same,inhibition of growth at 10 µM,U-251,< 10%
same,inhibition of growth at 10 µM,Malme-3M,< 10%
same,inhibition of growth at 10 µM,M14,< 10%
same,inhibition of growth at 10 µM,MDA-MB-435,< 10%
same,inhibition of growth at 10 µM,SK-MEL-2,< 10%
same,inhibition of growth at 10 µM,SK-MEL-28,< 10%
same,inhibition of growth at 10 µM,SK-MEL-5,12%
same,inhibition of growth at 10 µM,UACC-257,17.2%
same,inhibition of growth at 10 µM,UACC-62,18%
same,inhibition of growth at 10 µM,IGROV-1,< 10%
same,inhibition of growth at 10 µM,OVCAR-4,12.5%
same,inhibition of growth at 10 µM,OVCAR-5,< 10%
same,inhibition of growth at 10 µM,OVCAR-8,32%
same,inhibition of growth at 10 µM,NCI/ADR-RES,< 10%
same,inhibition of growth at 10 µM,SK-OV-3,< 10%
same,inhibition of growth at 10 µM,786-0,< 10%
same,inhibition of growth at 10 µM,A498,< 10%
same,inhibition of growth at 10 µM,ACHN,< 10%
same,inhibition of growth at 10 µM,CAKI-1,< 10%
same,inhibition of growth at 10 µM,RXF 393,< 10%
same,inhibition of growth at 10 µM,SN12C,< 10%
same,inhibition of growth at 10 µM,TK-10,< 10%
same,inhibition of growth at 10 µM,UO-31,13.7%
same,inhibition of growth at 10 µM,PC-3,21.1%
same,inhibition of growth at 10 µM,DU-145,< 10%
same,inhibition of growth at 10 µM,MCF7,28.9%
same,inhibition of growth at 10 µM,MDA-MB-231,14.5%
same,inhibition of growth at 10 µM,Hs-578T,< 10%
same,inhibition of growth at 10 µM,BT-549,< 10%
same,IC50,DNA,43.92 µg/mL
